# Experimental data from patent US20180057505A1, “BICYCLIC HETEROARYL COMPOUNDS USEFUL AS INHIBITORS OF THE PAR-2 SIGNALING PATHWAY” (VERTEX PHARMACEUTICALS INCORPORATED, priority 2015, published 2018).
# What was measured:
# Format in all cases: cell-based
# [1] = test system: UTP-stimulated Ca2+ response in HT-29 cells; assay: Ca FLIPR TETRA assay, ANTAGONIST mode, activator 0.6 μM UTP; conditions: HT-29 cells, activator 0.6 μM UTP
# Outline: (§1)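 Compounds are added to calcium 5-loaded HT-29 cells, read once for intrinsic Ca2+ activation, then incubated 30 min at room temperature. The same wells are then stimulated with a fixed final activator level and the Ca2+ response recorded on FLIPR Tetra.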
# PAR2 (HT-29 cells) [2] = target: T1, PAR2 (HT-29 cells) (Homo sapiens, UniProt P55085); assay: Ca FLIPR TETRA assay, ANTAGONIST mode, activator 8 μM SLIGKV; conditions: HT-29 cells; activator 8 μM SLIGKV; Method A: maximal concentration of antagonist 0.1, 1 or 2 μM
# T1 construct: host or cells: HT-29
# T1 sequence (P55085 26-397): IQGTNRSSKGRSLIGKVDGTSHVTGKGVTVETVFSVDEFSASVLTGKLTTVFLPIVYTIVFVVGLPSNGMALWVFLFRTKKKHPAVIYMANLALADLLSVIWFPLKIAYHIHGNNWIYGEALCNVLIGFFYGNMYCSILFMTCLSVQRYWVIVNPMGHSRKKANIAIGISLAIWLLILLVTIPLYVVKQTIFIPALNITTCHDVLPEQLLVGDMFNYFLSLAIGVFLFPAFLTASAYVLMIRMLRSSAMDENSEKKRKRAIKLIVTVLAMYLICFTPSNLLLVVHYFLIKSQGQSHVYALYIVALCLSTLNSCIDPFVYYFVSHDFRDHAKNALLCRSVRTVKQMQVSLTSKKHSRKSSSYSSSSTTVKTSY
# Outline: as §1
# [3] = test system: Thrombin-stimulated Ca2+ response in HT-29 cells; assay: Ca FLIPR TETRA assay, ANTAGONIST mode, activator 1 U/mL Thrombin; conditions: HT-29 cells, activator 1 U/mL Thrombin
# Outline: as §1
# PAR2 (HT-29 cells) [4] = target: T1, PAR2 (HT-29 cells); assay: Ca FLIPR TETRA assay, ANTAGONIST mode, activator 3.1 U/mL trypsin; conditions: HT-29 cells; activator 3.1 U/mL trypsin; Method A: maximal concentration of antagonist 0.1, 1 or 2 μM
# Outline: as §1
SMILES,IC50 [1] [µM],IC50 (PAR2 (HT-29 cells) [2]) [µM],IC50 [3] [µM],IC50 (PAR2 (HT-29 cells) [4]) [µM],IC50 ([1]; Homo sapiens) [µM],IC50 ([3]; Homo sapiens) [µM]
CC1(C)CCC(c2cc(C(C)(C)C)c3oc(C(=O)N4CCN(C(=O)C5CC6(CC(C(=O)O)C6)C5)CC4(C)C)cc3n2)CC1 (stereo not shown) [Example I-364],,0.0012,,0.0012,1.7,> 2
CC(C)(C)c1cc(-c2ccc(Cl)cc2)nc2cc(C(=O)N3CCN(c4ncc(C(=O)O)cn4)C(=O)C3(C)C)oc12 [Example I-369],,0.012,,0.019,> 2,> 2
CC(C)(C)c1cc(-c2ccc(Cl)cc2)nc2cc(C(=O)N3CCN(c4ncc(F)cn4)CC3(C)C)oc12 [Example I-370],,0.017,,0.017,> 2,> 2
Cc1cnc(N2CCN(C(=O)c3cc4nc(-c5ccc(Cl)c(F)c5)cc(C(C)(C)C)c4o3)C(C)(C)C2=O)nc1 [Example I-371],> 2,0.0052,> 2,0.0052,,
CC(C)[C@H](CC(=O)O)C(=O)N1CCN(C(=O)c2cc3nc(-c4ccc(Cl)c(F)c4)cc(C(C)(C)C)c3o2)C(C)(C)C1 [Example I-374],,0.0036,,0.0041,> 2,> 2
CC(C)(C)c1cc(-c2ccc(Cl)c(F)c2)nc2cc(C(=O)N3CCN(C(=O)CCP(C)(=O)O)CC3(C)C)oc12 [Example I-376],,0.28,,0.29,> 2,> 2
CC1(C)CCC(c2cc(C(C)(C)C)c3oc(C(=O)N4CCN(C(=O)CC[C@H](N)C(=O)O)CC4(C)C)cc3n2)CC1 [Example I-377],,0.4,,0.47,> 2,> 2
CC1(C)CCC(c2cc(C(C)(C)C)c3oc(C(=O)N4CCN(C(=O)CCCC(=O)O)CC4(C)C)cc3n2)CC1 [Example I-378],,0.0017,,0.0035,> 2,> 2
CC1(C)CCC(c2cc(C(C)(C)C)c3oc(C(=O)N4CCN(C(=O)c5ccc(C(=O)O)cn5)CC4(C)C)cc3n2)CC1 [Example I-379],,0.026,,0.056,> 2,> 2
CC1(C)CCC(c2cc(C(C)(C)C)c3oc(C(=O)N4CCN(C(=O)c5ccc(C(=O)O)nc5)CC4(C)C)cc3n2)CC1 [Example I-380],,0.21,,0.24,> 2,> 2
CC(C)(C)c1cc(-c2ccc(Cl)c(F)c2)nc2cc(C(=O)N3CCN(c4ccc(F)c(C(=O)O)n4)CC3(C)C)oc12 [Example I-381],,0.0009,,0.0027,> 2,> 2
Cc1coc(N2CCN(C(=O)c3cc4nc(C5CCC(C)(C)CC5)cc(C(C)(C)C)c4o3)C(C)(C)C2)n1 [Example I-382],,0.12,,0.1,> 2,> 2
Cc1cccc(C2CCN(C(=O)c3cc4nc(-c5ccc(Cl)cc5)cc(C(C)(C)C)c4o3)C(C)(C)C2)n1 (stereo not shown) [Example I-383],> 2,0.019,> 2,0.012,,
Cc1nc(C(=O)O)cnc1C1CCN(C(=O)c2cc3nc(C4CCC(C)(C)CC4)cc(C(C)(C)C)c3o2)C(C)(C)C1 (stereo not shown) [Example I-384],> 2,0.0025,> 2,0.0022,,
Cc1nc(C)c(N2CCN(C(=O)c3cc4nc(-c5ccc(Cl)cc5)cc(C(C)(C)C)c4o3)C(C)(C)C2=O)o1 [Example I-386],,0.05,,0.04,> 2,> 2
Cc1cncc(N2CCN(C(=O)c3cc4nc(-c5ccc(Cl)cc5)cc(C(C)(C)C)c4o3)C(C)(C)C2)n1 [Example I-387],,0.012,,0.01,> 2,> 2
Cc1cnc(N2CCN(C(=O)c3cc4nc(-c5ccc(Cl)cc5)cc(C(C)(C)C)c4o3)C(C)(C)C2)nc1 [Example I-388],,0.036,,0.0285,> 2,> 2
Cc1nccc(N2CCN(C(=O)c3cc4nc(-c5ccc(Cl)cc5)cc(C(C)(C)C)c4o3)C(C)(C)C2)n1 [Example I-389],,0.022,,0.023,> 2,> 2
Cc1cc(N2CCN(C(=O)c3cc4nc(-c5ccc(Cl)cc5)cc(C(C)(C)C)c4o3)C(C)(C)C2)ncn1 [Example I-390],,0.019,,0.0125,> 2,> 2
Cc1nc(C(=O)O)cnc1N1CCN(C(=O)c2cc3nc(-c4ccc(Cl)cc4)cc(C(C)(C)C)c3o2)C(C)(C)C1 [Example I-392],,0.0038,,0.0028,> 2,> 2
Cc1cccnc1N1CCN(C(=O)c2cc3nc(-c4ccc(Cl)cc4)cc(C(C)(C)C)c3o2)C(C)(C)C1 [Example I-394],,0.058,,0.055,> 2,> 2
Cc1ccc(N2CCN(C(=O)c3cc4nc(-c5ccc(Cl)cc5)cc(C(C)(C)C)c4o3)C(C)(C)C2)nc1 [Example I-395],,0.056,,0.0405,> 2,> 2

# Stronger by IC50 (PAR2 (HT-29 cells) [2]), values ahead:
IC50 [1] [µM],IC50 (PAR2 (HT-29 cells) [2]) [µM],IC50 [3] [µM],IC50 (PAR2 (HT-29 cells) [4]) [µM],IC50 ([1]; Homo sapiens) [µM],IC50 ([3]; Homo sapiens) [µM],SMILES
> 1.1,0.0007,> 1.1,0.001,,,CC(C)(C)c1cc(-c2ccc(Cl)c(F)c2)nc2cc(C(=O)N3CCN(C(=O)C4CC5(CC(C(=O)O)C5)C4)C(=O)C3(C)C)oc12 (stereo not shown) [Example I-362]
,0.0006,,0.0009,> 2,> 2,CC(C)(C)c1cc(-c2ccc(Cl)c(F)c2)nc2cc(C(=O)N3CCc4cnc(CC(=O)O)nc4C3(C)C)oc12 [Example I-363]
,0.0002,,0.0003,> 2,> 2,CC(C)(C)c1cc(-c2ccc(Cl)c(F)c2)nc2cc(C(=O)N3CCN(c4nc(C(=O)O)ccc4Cl)CC3(C)C)oc12 [Example I-365]
,0.0008,,0.0011,> 2,> 2,CC(C)(CCC(=O)N1CCN(C(=O)c2cc3nc(-c4ccc(Cl)cc4)cc(C(C)(C)C)c3o2)C(C)(C)C1)C(=O)O [Example I-366]
,0.0002,,0.0004,> 1.55,> 1.55,CC(C)(CCC(=O)N1CCN(C(=O)c2cc3nc(-c4ccc(Cl)c(F)c4)cc(C(C)(C)C)c3o2)C(C)(C)C1)C(=O)O [Example I-367]
,0.0002,,0.0003,> 2,> 2,CC(C)(C)c1cc(-c2ccc(Cl)c(F)c2)nc2cc(C(=O)N3CCN(C(=O)CC4(C(=O)O)CCC4)CC3(C)C)oc12 [Example I-372]
,0.0006,,0.0008,> 1.1,> 1.1,CC(C)[C@@H](CC(=O)O)C(=O)N1CCN(C(=O)c2cc3nc(-c4ccc(Cl)c(F)c4)cc(C(C)(C)C)c3o2)C(C)(C)C1 [Example I-373]
,0.0003,,0.0007,> 2,> 2,CC(C)(C)c1cc(-c2ccc(Cl)c(F)c2)nc2cc(C(=O)N3CCN(C(=O)[C@@H]4CCC[C@H](C(=O)O)C4)CC3(C)C)oc12 [Example I-375]
,0.0004,,0.0004,1.01,> 1.01,CC1(C)CCC(c2cc(C(C)(C)C)c3oc(C(=O)N4CCN(c5ncc(C(=O)O)cc5F)CC4(C)C)cc3n2)CC1 [Example I-391]
,0.0004,,0.0003,0.86,> 1.01,CC(C)(C)c1cc(-c2ccc(Cl)cc2)nc2cc(C(=O)N3CCN(c4ncc(C(=O)O)cc4F)CC3(C)C)oc12 [Example I-393]
,0.0003,,0.0003,1.06,1.01,CC(C)(C)c1cc(-c2ccc(Cl)c(F)c2)nc2cc(C(=O)N3CCN(c4ncc(C(=O)O)cc4F)CC3(C)C)oc12 [Example I-396]
0.76,0.0006,> 1.01,0.0006,,,Cc1ccc(C(=O)O)nc1C1CCN(C(=O)c2cc3nc(-c4ccc(Cl)cc4)cc(C(C)(C)C)c3o2)C(C)(C)C1 (stereo not shown) [Example I-397]
,0.0004,,0.0005,1.01,> 1.01,Cc1cc(N2CCN(C(=O)c3cc4nc(C5CCC(C)(C)CC5)cc(C(C)(C)C)c4o3)C(C)(C)C2)ncc1C(=O)O [Example I-398]
,0.0004,,0.0006,0.86,> 1.01,Cc1cc(N2CCN(C(=O)c3cc4nc(-c5ccc(Cl)cc5)cc(C(C)(C)C)c4o3)C(C)(C)C2)ncc1C(=O)O [Example I-399]
,0.0003,,0.0004,0.81,1.01,Cc1cc(N2CCN(C(=O)c3cc4nc(-c5ccc(Cl)c(F)c5)cc(C(C)(C)C)c4o3)C(C)(C)C2)ncc1C(=O)O [Example I-400]
